In the first assay the target is T1, N-type Ca^2+ Channel (Homo sapiens, UniProt Q00975).
T1 construct: host or cells: IMR-32 cells differentiated with dibutyryl cAMP and bromodeoxyuridine
T1 sequence (Q00975 whole entry): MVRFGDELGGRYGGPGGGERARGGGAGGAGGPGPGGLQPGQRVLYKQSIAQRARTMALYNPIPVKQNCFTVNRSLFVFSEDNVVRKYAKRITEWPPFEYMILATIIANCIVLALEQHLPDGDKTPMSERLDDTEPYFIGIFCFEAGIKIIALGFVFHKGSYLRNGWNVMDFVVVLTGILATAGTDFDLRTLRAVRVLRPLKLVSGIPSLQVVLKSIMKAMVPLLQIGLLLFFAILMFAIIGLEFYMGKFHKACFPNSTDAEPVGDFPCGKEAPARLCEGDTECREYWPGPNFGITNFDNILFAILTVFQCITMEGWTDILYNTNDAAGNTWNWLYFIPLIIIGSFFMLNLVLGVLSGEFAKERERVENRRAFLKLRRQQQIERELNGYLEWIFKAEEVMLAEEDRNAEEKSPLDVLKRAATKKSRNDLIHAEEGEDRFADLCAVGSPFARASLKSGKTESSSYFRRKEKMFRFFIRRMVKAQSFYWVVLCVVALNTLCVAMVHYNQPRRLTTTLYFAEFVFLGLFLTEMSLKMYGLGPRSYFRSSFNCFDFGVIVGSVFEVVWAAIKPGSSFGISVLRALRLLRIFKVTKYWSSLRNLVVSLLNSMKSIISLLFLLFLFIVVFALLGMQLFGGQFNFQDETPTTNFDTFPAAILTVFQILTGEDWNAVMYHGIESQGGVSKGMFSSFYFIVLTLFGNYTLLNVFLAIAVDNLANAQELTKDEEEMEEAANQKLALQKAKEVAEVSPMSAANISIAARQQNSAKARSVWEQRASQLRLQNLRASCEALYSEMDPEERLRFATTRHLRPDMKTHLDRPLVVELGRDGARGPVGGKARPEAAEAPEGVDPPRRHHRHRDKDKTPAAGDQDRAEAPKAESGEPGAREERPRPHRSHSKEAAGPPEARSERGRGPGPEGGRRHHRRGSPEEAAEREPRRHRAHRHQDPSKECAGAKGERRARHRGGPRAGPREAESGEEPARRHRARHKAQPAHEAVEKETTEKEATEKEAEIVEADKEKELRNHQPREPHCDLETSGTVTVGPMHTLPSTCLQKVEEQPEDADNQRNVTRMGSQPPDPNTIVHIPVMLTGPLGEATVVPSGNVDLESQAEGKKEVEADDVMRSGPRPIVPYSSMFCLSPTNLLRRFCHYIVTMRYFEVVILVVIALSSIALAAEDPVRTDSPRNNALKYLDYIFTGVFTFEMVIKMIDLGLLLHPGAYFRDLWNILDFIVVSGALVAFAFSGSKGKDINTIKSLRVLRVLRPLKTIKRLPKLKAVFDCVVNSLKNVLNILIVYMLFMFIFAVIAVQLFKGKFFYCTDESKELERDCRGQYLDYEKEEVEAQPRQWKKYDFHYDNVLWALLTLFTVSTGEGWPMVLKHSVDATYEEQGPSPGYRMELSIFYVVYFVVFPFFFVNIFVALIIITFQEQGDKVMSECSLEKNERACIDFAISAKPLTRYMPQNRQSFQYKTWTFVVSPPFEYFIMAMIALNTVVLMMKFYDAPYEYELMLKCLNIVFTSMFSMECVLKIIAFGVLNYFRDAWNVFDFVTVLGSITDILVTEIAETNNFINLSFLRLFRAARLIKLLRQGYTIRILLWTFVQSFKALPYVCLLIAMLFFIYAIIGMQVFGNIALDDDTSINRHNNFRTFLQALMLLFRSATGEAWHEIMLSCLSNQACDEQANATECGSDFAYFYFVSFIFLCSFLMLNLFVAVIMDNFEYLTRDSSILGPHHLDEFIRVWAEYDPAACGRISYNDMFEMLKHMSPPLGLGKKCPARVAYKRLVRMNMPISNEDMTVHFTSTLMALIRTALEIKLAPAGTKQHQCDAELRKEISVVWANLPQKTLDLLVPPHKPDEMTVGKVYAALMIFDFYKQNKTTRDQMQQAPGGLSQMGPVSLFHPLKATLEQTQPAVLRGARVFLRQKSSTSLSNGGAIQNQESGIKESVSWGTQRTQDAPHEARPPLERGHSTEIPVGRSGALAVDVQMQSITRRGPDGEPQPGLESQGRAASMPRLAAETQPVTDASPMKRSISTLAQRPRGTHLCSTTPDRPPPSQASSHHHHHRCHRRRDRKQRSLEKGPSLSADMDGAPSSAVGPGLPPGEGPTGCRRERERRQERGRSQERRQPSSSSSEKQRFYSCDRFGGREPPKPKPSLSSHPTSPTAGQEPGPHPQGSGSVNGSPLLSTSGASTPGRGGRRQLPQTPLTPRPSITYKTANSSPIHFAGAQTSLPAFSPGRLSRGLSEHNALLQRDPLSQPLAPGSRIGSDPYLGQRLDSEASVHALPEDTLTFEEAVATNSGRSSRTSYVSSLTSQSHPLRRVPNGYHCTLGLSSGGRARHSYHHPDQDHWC
T1 sequence (P54284 whole entry partner): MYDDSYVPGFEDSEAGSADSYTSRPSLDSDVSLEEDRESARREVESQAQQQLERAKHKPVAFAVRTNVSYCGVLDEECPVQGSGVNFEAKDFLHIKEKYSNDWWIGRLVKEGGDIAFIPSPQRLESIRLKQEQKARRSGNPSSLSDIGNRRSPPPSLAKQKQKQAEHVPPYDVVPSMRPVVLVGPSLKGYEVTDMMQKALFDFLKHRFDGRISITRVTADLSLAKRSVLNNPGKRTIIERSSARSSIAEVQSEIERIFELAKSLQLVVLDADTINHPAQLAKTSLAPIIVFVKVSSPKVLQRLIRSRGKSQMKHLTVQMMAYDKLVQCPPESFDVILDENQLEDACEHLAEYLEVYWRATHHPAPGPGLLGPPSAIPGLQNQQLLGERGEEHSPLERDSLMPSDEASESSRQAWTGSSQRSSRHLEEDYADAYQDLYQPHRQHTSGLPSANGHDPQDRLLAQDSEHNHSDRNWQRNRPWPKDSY
T1 sequence (P54289 25-946 partner limits assumed): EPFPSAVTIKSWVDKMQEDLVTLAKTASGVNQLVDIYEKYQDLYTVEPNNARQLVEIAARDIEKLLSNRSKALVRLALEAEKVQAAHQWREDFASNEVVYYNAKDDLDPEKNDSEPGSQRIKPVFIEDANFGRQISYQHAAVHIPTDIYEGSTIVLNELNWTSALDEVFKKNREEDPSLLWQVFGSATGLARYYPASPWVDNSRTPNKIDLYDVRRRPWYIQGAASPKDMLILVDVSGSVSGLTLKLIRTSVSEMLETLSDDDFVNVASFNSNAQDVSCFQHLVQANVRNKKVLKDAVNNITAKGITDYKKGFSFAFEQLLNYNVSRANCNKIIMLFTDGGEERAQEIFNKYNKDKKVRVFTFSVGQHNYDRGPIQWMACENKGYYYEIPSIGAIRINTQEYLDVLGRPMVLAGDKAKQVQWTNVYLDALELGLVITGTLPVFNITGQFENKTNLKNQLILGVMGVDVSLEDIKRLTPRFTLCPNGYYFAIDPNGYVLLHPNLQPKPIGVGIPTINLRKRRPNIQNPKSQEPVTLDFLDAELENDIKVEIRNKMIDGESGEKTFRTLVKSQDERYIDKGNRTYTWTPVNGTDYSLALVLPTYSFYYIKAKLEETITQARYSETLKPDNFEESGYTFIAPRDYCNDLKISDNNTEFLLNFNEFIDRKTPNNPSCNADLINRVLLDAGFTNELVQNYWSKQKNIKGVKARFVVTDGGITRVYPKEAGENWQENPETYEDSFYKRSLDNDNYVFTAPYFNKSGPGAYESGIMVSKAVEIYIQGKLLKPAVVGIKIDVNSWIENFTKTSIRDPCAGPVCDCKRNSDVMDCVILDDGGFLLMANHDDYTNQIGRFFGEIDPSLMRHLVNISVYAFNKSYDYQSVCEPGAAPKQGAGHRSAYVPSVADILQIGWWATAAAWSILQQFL
T1 sequence (P54289 947-1103 partner limits assumed): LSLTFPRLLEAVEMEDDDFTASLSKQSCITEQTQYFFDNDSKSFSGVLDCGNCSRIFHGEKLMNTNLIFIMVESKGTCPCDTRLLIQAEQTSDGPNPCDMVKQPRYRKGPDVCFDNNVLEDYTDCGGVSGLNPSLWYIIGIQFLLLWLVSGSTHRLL
Description: Measurement of N-type Ca2+ channel blocking potencies in IMR-32 cells using the fluorescent Ca2+ indicator Indo-1. The assay is classed as cell-based. Particulars: 0.3 μM; IMR-32 cells, 5 μM nitrendipine. Put shortly: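 IMR-32 cells were differentiated 7–13 days (1 mM dibutyryl cAMP, 2.5 µM BrdU) and Indo-1-loaded. They were preincubated 10 min at 30 °C with compound and 5 µM nitrendipine in HEPES/Tris pH 7.4 HBSS with 0.5% BSA, then KCl/CaCl2-depolarized. The peak-minus-basal 400/490 nm emission ratio gave IC50 by four-parameter logistic fit.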
For `CCN(CCC(C)C)C(CC(C)C)C(=O)NC(Cc1ccc(OCc2ccccc2)cc1)C(=O)NC(C)(C)C` (stereo not drawn) [Example 45, [S-(R*,R*)]-4Methyl-2-[ethyl-(3-methyl-butyl)-amino]-pentanoic acid [2-(4-benzyloxy-phenyl)-1-tert-butylcarbamoyl-ethyl]-amide], the “IMR 32 % of Blockade @ 0.3 μM” value is 45%.

Staying with this assay, now noted: 1 μM; IMR-32 cells, 5 μM nitrendipine.
Turning to `CC(C)CCN(C)C(CC(C)C)C(=O)NC(Cc1ccc(OCc2ccccc2)cc1)C(=O)N1CCN(Cc2ccccc2)CC1` (stereo not drawn) [Example 10, [S-(R*,R*)]4-Methyl-2-[methyl-(3-methyl-butyl)-amino]-pentanoic acid [1-(4-benzyloxy-benzyl)-2-(4-benzyl-piperazin-1-yl)-2-oxo-ethyl]-amide], the “IMR 32 % of Blockade @ 1 μM” value was 61%.

Staying with this assay, now noted: 3 μM; IMR-32 cells, 5 μM nitrendipine.
In the case of `CCN(CCC(C)C)C(CC(C)C)C(=O)NC(Cc1ccc(OCc2ccccc2)cc1)C(=O)NC(C)(C)C` (stereo not drawn) [Example 45, [S-(R*,R*)]-4Methyl-2-[ethyl-(3-methyl-butyl)-amino]-pentanoic acid [2-(4-benzyloxy-phenyl)-1-tert-butylcarbamoyl-ethyl]-amide], the “IMR 32 % of Blockade @ 3 μM” value stood at 77%.

Still in this assay, the particulars now being: 10 μM; IMR-32 cells, 5 μM nitrendipine.
Turning to `CC(C)CCN(C)C(CC(C)C)C(=O)NC(Cc1ccc(OCc2ccccc2)cc1)C(=O)N1CCN(Cc2ccccc2)CC1` (stereo not drawn) [Example 10, [S-(R*,R*)]4-Methyl-2-[methyl-(3-methyl-butyl)-amino]-pentanoic acid [1-(4-benzyloxy-benzyl)-2-(4-benzyl-piperazin-1-yl)-2-oxo-ethyl]-amide], the “IMR 32 % of Blockade @ 10 μM” value is recorded as 80%.

Still in this assay, the particulars now being: IMR-32 cells, 5 μM nitrendipine; Examples 116-140; read-out: IMR 32% of Blockade @.
On to `CC(C)C[C@@H](C(=O)N[C@@H](Cc1ccc(OCc2ccccc2)cc1)C(=O)NCCN1CCSCC1)N1CCOCC1` (relative stereo) [Example 122, [S-(R*,R*)]-4-Methyl-2-morpholin-4-yl-pentanoic acid [2-(4-benzyloxy-phenyl)-1-(2-thiomorpholin-4-yl-ethylcarbamoyl)-ethyl]-amide], for which the IC50 turned out to be 3100 nM.

In the case of `CC(C)C[C@@H](C(=O)N[C@@H](Cc1ccc(OCc2ccccc2)cc1)C(=O)NC(C)(C)CO)N1CCOCC1` (relative stereo) [Example 123, [S-(R*,R*)]-4-Methyl-2-morpholin-4-yl-pentanoic acid [2-(4-benzyloxy-phenyl)-1-(2-hydroxy-1,1-dimethyl-ethylcarbamoyl)-ethyl]-amide], the IC50 was 13000 nM.

With `CCC(CO)(CO)NC(=O)[C@H](Cc1ccc(OCc2ccccc2)cc1)NC(=O)[C@H](CC(C)C)N1CCOCC1` (relative stereo) [Example 124, [S-(R*,R*)]-4-Methyl-2-morpholin-4-yl-pentanoic acid [2-(4-benzyloxy-phenyl)-1-(1,1-bis-hydroxymethyl-propyl-carbamoyl)-ethyl]-amide], the IC50 was found to be 7200 nM.

With `CC(C)C[C@@H](C(=O)N[C@@H](Cc1ccc(OCc2ccccc2)cc1)C(=O)NCCN1CCCC1)N1CCOCC1` (relative stereo) [Example 125, [S-(R*,R*)]-4-Methyl-2-morpholin-4-yl-pentanoic acid [2-(4-benzyloxy-phenyl)-1-(2-pyrrolidin-1-yl-ethylcarbamoyl)-ethyl]-amide], the IC50 was determined as 9700 nM.

Consider `CC(C)C[C@@H](C(=O)N[C@@H](Cc1ccc(OCc2ccccc2)cc1)C(=O)N1CCC(O)CC1)N1CCOCC1` (relative stereo) [Example 126, [S-(R*,R*)]4-Methyl-2-morpholin-4-yl-pentanoic acid [2-(4-benzyloxy-phenyl)-1-(4-hydroxypiperidinylcarbamoyl)-ethyl]-amide], for which the IC50 is 6400 nM.

Turning to `CC(C)C[C@H](NC1CCOCC1)C(=O)N[C@@H](Cc1ccc(OCc2ccccc2)cc1)C(=O)NCCN1CCOCC1` (relative stereo) [Example 127, [S-(R*,R*)]-4-Methyl-2-(tetrahydropyran-4-yl-amino)-pentanoic acid [2-(4-benzyloxy-phenyl)-1-(2-morpholin4-yl-ethylcarbamoyl)-ethyl]-amide], the IC50 came to 7500 nM.

For the compound `CC(C)C[C@H](NC1CCOCC1)C(=O)N[C@@H](Cc1ccc(OCc2ccccc2)cc1)C(=O)NCCCn1ccnc1` (relative stereo) [Example 129, [S-(R*,R*)]-4-Methyl-2-(tetrahydropyran-4-yl-amino)-pentanoic acid [2-(4-benzyloxy-phenyl)-1-(3-imidazol-1-yl-propylcarbamoyl)-ethyl]-amide], the IC50 was determined as 6300 nM.

For the compound `CC(C)C[C@@H](C(=O)N[C@@H](Cc1ccc(OCc2ccccc2)cc1)C(=O)NCCN1CCOCC1)N(C)C` (relative stereo) [Example 132, [S-(R*,R*)]-2-Dimethylamino-4-methyl-pentanoic acid [2-(4-benzyloxy-phenyl)-1-(2-morpholin-4-yl-ethylcarbamoyl)-ethyl]-amide], the IC50 was determined as 12000 nM.

Regarding `CC(C)C[C@@H](C(=O)N[C@@H](Cc1ccc(OCc2ccccc2)cc1)C(=O)NCCCn1ccnc1)N(C)C` (relative stereo) [Example 134, [S-(R*,R*)]-2-Dimethylamino-4-methyl-pentanoic acid [2-(4-benzyloxy-phenyl)-1-(3-imidazol-1-yl-propylcarbamoyl)-ethyl]-amide], the IC50 came out at 1600 nM.

Regarding `CC(C)C[C@@H](C(=O)N[C@@H](Cc1ccc(OCc2ccccc2)cc1)C(=O)N1CCSCC1)N(C)C` (relative stereo) [Example 135, [S-(R*,R*)]-2-Dimethylamino-4-methyl-pentanoic acid [2-(4-benzyloxy-phenyl)-1-(thiomorpholinecarbamoyl)-ethyl]-amide], the IC50 amounted to 1400 nM.

`CC(C)C[C@@H](C(=O)N[C@@H](Cc1ccc(OCc2ccccc2)cc1)C(=O)NC(C)CO)N(C)C` (relative stereo) [Example 136, [S-(R*,R*)]-2-Dimethylamino-4-methyl-pentanoic acid [2-(4-benzyloxy-phenyl)-1-(2-aminopropan-1-olcarbamoyl)-ethyl]-amide]: the IC50 is 3600 nM.

For the compound `CCC(COC)NC(=O)[C@H](Cc1ccc(OCc2ccccc2)cc1)NC(=O)[C@H](CC(C)C)N(C)C` (relative stereo) [Example 138, [S-(R*,R*)]-2-Dimethylamino-4-methyl-pentanoic acid [2-(4-benzyloxy-phenyl)-1-(1-methoxymethyl-propylcarbamoyl)-ethyl]-amide], the IC50 came to 3000 nM.

Regarding `CC(C)C[C@@H](C(=O)N[C@@H](Cc1ccc(OCc2ccccc2)cc1)C(=O)NCCN1CCCC1)N(C)C` (relative stereo) [Example 139, [S-(R*,R*)]-2-Dimethylamino-4-methyl-pentanoic acid [2-(4-benzyloxy-phenyl)-1-(2-pyrrolidin-1-yl-ethylcarbamoyl)-ethyl]-amide], the IC50 is 38800 nM.

Staying with this assay, now noted: IMR-32 cells, K+ depolarization, 5 μM nitrendipine to block L-type channels; read-out: IMR 32 IC50.
For `CC(C)CCN(C)[C@@H](CC(C)C)C(=O)NC(Cc1ccc(OCc2ccccc2)cc1)C(=O)NCCNCc1ccccc1` (stereo in doubt) [Example 60, [S(R*,R*)]-4-Methyl-2-[methyl-(3-methyl-butyl)-amino]-pentanoic acid [1-(2-benzylamino-ethylcarbamoyl)-2-(4-benzyloxy-phenyl)-ethyl]-amide], the IC50 amounted to 200 nM.

Turning to `CC(C)CC(C(=O)NC(Cc1ccc(OCc2ccccc2)cc1)C(=O)N1CCN(C)CC1)N(C)CC1CCCCC1` (stereo not drawn) [Example 30, [S-(R*,R*)]-2-(Cyclohexylmethyl-methyl-amino)-4-methyl-pentanoic acid [1-(4-benzyloxy-benzyl)-2-(4-methyl-piperazin-1-yl)-2-oxo-ethyl]-amide], the IC50 was determined as 1200 nM.

On to `CC(C)CC(NCc1ccc(C(C)(C)C)cc1)C(=O)NC(Cc1ccc(OCc2ccccc2)cc1)C(=O)NC(C)(C)C` (stereo not drawn) [Example 50, [S-(R*,R*)]-2-(4-tert-Butyl-benzylamino)-4-methyl-pentanoic acid [2-(4-benzyloxy-phenyl)-1-tert-butylcarbamoyl-ethyl]-amide], for which the IC50 was found to be 420 nM.

Consider `CC(C)CC(C(=O)NC(Cc1ccc(OCc2ccccc2)cc1)C(=O)NC(C)(C)C)N(C)Cc1ccccc1` (stereo not drawn) [Example 54, [S-(R*,R*)]-2-(Benzyl-methyl-amino)-4-methyl-pentanoic acid [2-(4-benzyloxy-phenyl)-1-tert-butylcarbamoyl-ethyl]-amide], for which the IC50 stood at 360 nM.

Take `CC(C)CC(C(=O)NC(Cc1ccc(NCc2ccccc2)cc1)C(=O)NC(C)(C)C)N(C)Cc1ccc(C(C)(C)C)cc1` (stereo not drawn) [Example 55, [S-(R*,R*)]-2-[(4-tert-Butyl-benzyl)-methyl-amino]-4-methyl-pentanoic acid [2-(4-benzylamino-phenyl)-1-tert-butylcarbamoyl-ethyl]-amide]: the IC50 was 100 nM.

Regarding `CC(C)CCN(C)C(CC(C)C)C(=O)NC(Cc1ccc(OCc2ccccc2)cc1)C(=O)NCCNCCO` (stereo not drawn) [Example 66, [S-(R*,R*)]-4-Methyl-2-[methyl-(3-methyl-butyl)-amino]-pentanoic acid {2-(4-benzyloxy-phenyl)-1-[2-(2-hydroxy-ethylamino)-ethylcarbamoyl]-ethyl}-amide], the IC50 came to 1900 nM.

With `CC(C)CC(C(=O)NC(Cc1ccc(OCc2ccccc2)cc1)C(=O)N1CCCCC1)N1CCOCC1` (stereo not drawn) [Example 70, [S-(R*,R*)]-4-Methyl-2-morpholin-4-yl-pentanoic acid [1-(4-benzyloxy-benzyl)-2-oxo-2-piperidin-1-yl-ethyl]-amide], the IC50 was 2300 nM.

Take `CC(C)CC(NC1CCOCC1)C(=O)NC(Cc1ccc(OCc2ccccc2)cc1)C(=O)NC(C)(C)CO` (stereo not drawn) [Example 73, [S-(R*,R*)]-4-Methyl-2-(tetrahydro-pyran4-ylamino)-pentanoic acid [2-(4-benzyloxy-phenyl)-1-(2-hydroxy-1,1-dimethyl-ethylearbamoyl)-ethyl]-amide]: the IC50 came out at 2700 nM.

The same assay, now with this note: read-out: IMR 32% of Blockade @.
For `CC(C)C[C@@H](C(=O)N[C@@H](Cc1ccc(OCc2ccccc2)cc1)C(=O)NCCc1ccccn1)N(C)C` (relative stereo) [Example 133, [S-(R*,R*)]-2-Dimethylamino-4-methyl-pentanoic acid [2-(4-benzyloxy-phenyl)-1-(2-(2-aminoethyl)pyridinecarbamoyl)-ethyl]-amide], the IC50 turned out to be 5900 nM.

Staying with this assay, now noted: read-out: IMR 32 IC50.
As to `CCN(CC)C(CC(C)C)C(=O)N[C@@H](Cc1ccc(OCc2ccccc2)cc1)C(=O)NC(C)(C)C` (stereo in doubt) [Example 37, [S-(R*,R*/S*)]-2-Diethylamino-4-methyl-pentanoic acid[2-(4-benzyloxy-phenyl)-1-tert-butylcarbamoyl-ethyl]-amide], the IC50 was 1000 nM.
